Laboratory results from the NIST ThermoML archive (doi:10.1016/j.jct.2004.12.005).
± gives the expanded uncertainty stated by the source.

What was measured:
[1] = 298.15 K; 101.33 kPa; Liquid
[2] = excess molar enthalpy (molar enthalpy of mixing); xn = mol fraction of the nth substance listed; conditions: 298.15 K, 101.3 kPa, Liquid, Flow calorimetry

CCCCCCCCCCCC [dodecane]
mass density [1]: 745.38 ± 0.78 kg/m3

CC1CCCO1 (configuration not stated) [2-methyltetrahydrofuran]
mass density [1]: 848.1 ± 0.64 kg/m3

C1CCOC1 [tetrahydrofuran]
mass density [1]: 882.09 ± 0.6 kg/m3

COC(C)(C)C [2-methoxy-2-methylpropane] + C1CCOC1
excess molar enthalpy ([2]; x2 = 0.1015): 0.0082 ± 0.000311 kcal/mol
excess molar enthalpy ([2]; x2 = 0.1924): 0.0143 ± 0.000382 kcal/mol
excess molar enthalpy ([2]; x2 = 0.2745): 0.0186 ± 0.00043 kcal/mol
excess molar enthalpy ([2]; x2 = 0.3482): 0.0216 ± 0.000454 kcal/mol
excess molar enthalpy ([2]; x2 = 0.4173): 0.0234 ± 0.000478 kcal/mol
excess molar enthalpy ([2]; x2 = 0.4784): 0.0244 ± 0.000478 kcal/mol
excess molar enthalpy ([2]; x2 = 0.5358): 0.0248 ± 0.000478 kcal/mol
excess molar enthalpy ([2]; x2 = 0.5883): 0.0243 ± 0.000478 kcal/mol
excess molar enthalpy ([2]; x2 = 0.6368): 0.0233 ± 0.000478 kcal/mol
excess molar enthalpy ([2]; x2 = 0.6821): 0.0221 ± 0.000454 kcal/mol
excess molar enthalpy ([2]; x2 = 0.7242): 0.0206 ± 0.000454 kcal/mol
excess molar enthalpy ([2]; x2 = 0.7626): 0.0188 ± 0.00043 kcal/mol
excess molar enthalpy ([2]; x2 = 0.7994): 0.0168 ± 0.000406 kcal/mol
excess molar enthalpy ([2]; x2 = 0.8338): 0.0146 ± 0.000382 kcal/mol
excess molar enthalpy ([2]; x2 = 0.8655): 0.0123 ± 0.000359 kcal/mol
excess molar enthalpy ([2]; x2 = 0.8799): 0.0112 ± 0.000359 kcal/mol
excess molar enthalpy ([2]; x2 = 0.9246): 0.00739 ± 0.000311 kcal/mol
excess molar enthalpy ([2]; x2 = 0.9507): 0.00473 ± 0.000287 kcal/mol
excess molar enthalpy ([2]; x2 = 0.9761): 0.00241 ± 0.000263 kcal/mol

CC1CCCO1 (configuration not stated) [2-methyltetrahydrofuran] + COC(C)(C)C
excess molar enthalpy ([2]; x1 = 0.0499): 0.00159 ± 0.000263 kcal/mol
excess molar enthalpy ([2]; x1 = 0.0998): 0.00298 ± 0.000263 kcal/mol
excess molar enthalpy ([2]; x1 = 0.1498): 0.00424 ± 0.000287 kcal/mol
excess molar enthalpy ([2]; x1 = 0.2002): 0.00541 ± 0.000287 kcal/mol
excess molar enthalpy ([2]; x1 = 0.2501): 0.00635 ± 0.000311 kcal/mol
excess molar enthalpy ([2]; x1 = 0.3004): 0.00717 ± 0.000311 kcal/mol
excess molar enthalpy ([2]; x1 = 0.3504): 0.00788 ± 0.000311 kcal/mol
excess molar enthalpy ([2]; x1 = 0.4001): 0.00821 ± 0.000335 kcal/mol
excess molar enthalpy ([2]; x1 = 0.4501): 0.00859 ± 0.000335 kcal/mol
excess molar enthalpy ([2]; x1 = 0.5007): 0.00875 ± 0.000335 kcal/mol
excess molar enthalpy ([2]; x1 = 0.5495): 0.00884 ± 0.000335 kcal/mol
excess molar enthalpy ([2]; x1 = 0.5999): 0.00859 ± 0.000335 kcal/mol
excess molar enthalpy ([2]; x1 = 0.6501): 0.00815 ± 0.000311 kcal/mol
excess molar enthalpy ([2]; x1 = 0.7002): 0.00753 ± 0.000311 kcal/mol
excess molar enthalpy ([2]; x1 = 0.7508): 0.00673 ± 0.000311 kcal/mol
excess molar enthalpy ([2]; x1 = 0.8): 0.00582 ± 0.000311 kcal/mol
excess molar enthalpy ([2]; x1 = 0.8509): 0.00473 ± 0.000287 kcal/mol
excess molar enthalpy ([2]; x1 = 0.9): 0.00338 ± 0.000263 kcal/mol
excess molar enthalpy ([2]; x1 = 0.95): 0.00184 ± 0.000263 kcal/mol

COC(C)(C)C [2-methoxy-2-methylpropane]
mass density [1]: 735.99 ± 0.73 kg/m3
